Data as given in ChEMBL document CHEMBL1201862, “PubChem BioAssay data set” (2004).
Structures can show the parent of a compound that is named as a salt.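 1) Cells in 96-well plates. 2) Compound, 48 h, 5 concentrations. 3) Linear interpolation between surrounding doses. 4) Unreached endpoint = highest concentration. GI50 = concentration required for 50% inhibition of growth.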 The source made the active and inactive calls. Rule as the data show it: active = GI50 up to about 1.1 µM and inactive = higher.

Legend:
Experiment in all cases: inhibition of tumour cell growth, NCI panel, 48 h
[1] = tested on: CAKI-1
[2] = tested on: EKVX
[3] = tested on: HL-60
[4] = tested on: HOP-62
[5] = tested on: HT-29
[6] = tested on: IGROV-1
[7] = tested on: K562
[8] = tested on: LOX IMVI
[9] = tested on: M14
[10] = tested on: MDA-MB-231
[11] = tested on: NCI-H460
[12] = tested on: SF-295
[13] = tested on: SK-MEL-2
[14] = tested on: SN12C
[15] = tested on: SNB-75
[16] = tested on: SR
[17] = tested on: SW-620
[18] = tested on: U-251
[19] = tested on: UACC-257
[20] = tested on: HCC 2998

Measured: GI50

C#CCOCCCC(=O)O
inactive: [1] > 100 µM | [2] > 100 µM | [3] > 100 µM | [4] > 100 µM | [5] > 100 µM | [6] > 100 µM | [7] > 100 µM | [8] > 100 µM | [9] > 100 µM | [10] > 100 µM | [11] > 100 µM | [12] > 100 µM | [13] > 100 µM | [14] > 100 µM | [15] > 100 µM | [16] > 100 µM | [17] > 100 µM | [18] > 100 µM | [19] > 100 µM

NCCN1C(=O)c2ccccc2C1(O)c1ccc(Cl)cc1 (stereo unspecified)
inactive: [1] 24.5 µM | [2] 21.3 µM | [3] 52.8 µM | [4] 24.2 µM | [5] 19.6 µM | [6] 19 µM | [7] 19.7 µM | [8] 16.6 µM | [9] 19 µM | [10] 15.5 µM | [11] 16.4 µM | [12] 21.9 µM | [13] 16.5 µM | [14] 35.2 µM | [15] 21.9 µM | [16] 17.9 µM | [17] 18.5 µM | [18] 16.1 µM | [19] 17.1 µM

O=C1COc2cccnc2N1CCCCO
inactive: [1] > 100 µM | [2] > 100 µM | [3] > 100 µM | [4] > 100 µM | [6] > 100 µM | [8] > 100 µM | [10] > 100 µM | [11] > 100 µM | [12] > 100 µM | [13] > 100 µM | [14] > 100 µM | [15] > 100 µM | [16] > 100 µM | [17] > 100 µM | [18] > 100 µM | [19] > 100 µM

CCN(CC)CCC(=O)c1ccc(Oc2ccc(F)cc2)cc1
inactive: [1] 17.1 µM | [2] 20.6 µM | [20] 20 µM | [4] 22.3 µM | [5] 19.8 µM | [6] 20.3 µM | [7] 38.3 µM | [8] 15.4 µM | [9] 18.3 µM | [10] 17.1 µM | [12] 39.4 µM | [13] 46.2 µM | [14] 18.2 µM | [15] 26.7 µM | [16] 12.5 µM | [17] 18.4 µM | [18] 17.1 µM | [19] 17.8 µM

COc1ccccc1N1C(=O)CSC1c1cccc(Oc2ccccc2)c1 (stereo unspecified)
inactive: [1] 23.8 µM | [2] 17.2 µM | [3] 20.9 µM | [4] 20.1 µM | [5] 20.1 µM | [7] 32.8 µM | [8] 17.1 µM | [9] 17.7 µM | [10] 16.4 µM | [11] 18.2 µM | [12] 19.4 µM | [13] 15.8 µM | [14] 17.2 µM | [15] 18.7 µM | [16] 24.8 µM | [17] 21.9 µM | [18] 17 µM | [19] 16.7 µM

CC(=O)O[C@H]1C[C@H]2C(=S)Nc3ccccc3C(=S)N2C1
inactive: [1] > 100 µM | [2] > 100 µM | [20] > 100 µM | [4] > 100 µM | [5] > 100 µM | [6] > 100 µM | [7] > 100 µM | [8] > 100 µM | [9] > 100 µM | [10] > 100 µM | [11] > 100 µM | [12] > 100 µM | [13] > 100 µM | [14] > 100 µM | [15] 88.3 µM | [16] > 100 µM | [17] > 100 µM | [18] > 100 µM | [19] > 100 µM

Cc1nc(C(N)=S)sc1C(=O)C/C(=N/N)C(=O)Nc1ccc(Cl)cc1
inactive: [1] > 100 µM | [2] 52.8 µM | [20] > 100 µM | [4] 50.8 µM | [5] 58.3 µM | [6] 16.5 µM | [7] 31.3 µM | [8] 82.8 µM | [9] > 100 µM | [10] > 100 µM | [11] 55.5 µM | [12] 84.9 µM | [13] > 100 µM | [14] > 100 µM | [15] > 100 µM | [16] > 100 µM | [17] > 100 µM | [18] 99.5 µM | [19] > 100 µM

CC(=O)OCC1OC(Sc2nc(-c3ccccc3)c(C#N)c(=O)n2C2OC(COC(C)=O)C(OC(C)=O)C(OC(C)=O)C2OC(C)=O)C(OC(C)=O)C(OC(C)=O)C1OC(C)=O (stereo unspecified)
inactive: [1] > 100 µM | [2] > 100 µM | [20] 8.11 µM | [4] > 100 µM | [5] > 100 µM | [6] > 100 µM | [7] 32.2 µM | [8] > 100 µM | [9] > 100 µM | [10] > 100 µM | [11] > 100 µM | [12] > 100 µM | [13] > 100 µM | [14] > 100 µM | [15] > 100 µM | [16] > 100 µM | [17] > 100 µM | [18] > 100 µM | [19] > 100 µM

O=C1CCCC(=O)N1n1c(Cc2ccccc2)n[nH]c1=O
inactive: [1] > 100 µM | [2] > 100 µM | [3] > 100 µM | [4] > 100 µM | [5] > 100 µM | [6] > 100 µM | [7] > 100 µM | [8] > 100 µM | [9] > 100 µM | [10] > 100 µM | [12] > 100 µM | [13] > 100 µM | [14] > 100 µM | [15] > 100 µM | [16] > 100 µM | [17] > 100 µM | [18] > 100 µM | [19] > 100 µM

CC(=O)c1c(CO[N+](=O)[O-])[n+]([O-])c2ccccc2[n+]1[O-]
inactive: [1] > 100 µM | [2] > 100 µM | [4] 98.2 µM | [5] > 100 µM | [6] 41.5 µM | [7] > 100 µM | [8] 58.5 µM | [9] 35.1 µM | [10] 53.7 µM | [11] > 100 µM | [12] > 100 µM | [13] > 100 µM | [14] 64.1 µM | [15] > 100 µM | [16] 43.9 µM | [17] 63.7 µM | [18] 33.8 µM | [19] > 100 µM

Oc1ccc(C(O)C2CCCCN2)cc1O (stereo unspecified) [RIMITEROL HYDROBROMIDE]
inactive: [1] > 100 µM | [2] > 100 µM | [4] > 100 µM | [5] > 100 µM | [6] > 100 µM | [7] > 100 µM | [8] 28.4 µM | [9] > 100 µM | [10] > 100 µM | [11] > 100 µM | [12] > 100 µM | [13] > 100 µM | [14] > 100 µM | [15] > 100 µM | [16] 71 µM | [17] 46.7 µM | [18] > 100 µM | [19] 57.4 µM
